Laboratory results: patent US7901894B2, “Kinase inhibitors” (The Research Foundation of State University of New York, priority 1999, dated 2011)
Blank lines part the entries; values can stand above or below the molecule they belong to. *1 amine or outer side, *2 acyl side, *3 side chain or, on linkers, in order; H or OH if unused. Where a SMILES comes first, the peptide text is derived from it. [ ]: non-standard residue; d: D form. X2 = O=C(O)CC(CC(=O)O)NC[C@H](N[*:1])C(=O)[*:2]; Abu(4-PO3H2) = N[C@@H](CCP(=O)(O)O)C(=O)O; X1 = O=C([C@H](CNS(=O)(=O)O)N[*:1])[*:2]; M1 = not defined here

Columns and labels:
PKA [1] = target: T1, PKA (Homo sapiens, UniProt P17612); experiment: PKA Cellular Mimetic assay; assay type: biochemical; conditions: Cellular Mimetic (C) conditions
From the text: (§1) The boronic acid inhibitors 21-24 have two Arg residues in their sequence and therefore will bind to the phosphocellulose paper in addition to Kemptamide (although not as consistently or completely due to one less positive charge). Consequently, when analyzed as inhibitors, the amount of phosphorylated Kemptamide produced was not only counted, but also the amount of phosphorylated inhibitor simultaneously produced (e.g. see 26 below). The net result is that distorted IC50 curves are obtained which show net “stimulation” at higher inhibitor concentrations in some cases. […] The underlying substrate behavior of these “inhibitors” makes an accurate measurement of their inhibition potency impossible with the current assay. However, it does appear from the data that homologating/extending the boronic acid functionality with CH2 groups (homologations/extensions with boronic acid non-peptide src inhibitors may also be carried out) decreases the binding affinity and ability of the compound to function as a substrate.

PKA [2] = target: T1, PKA; experiment: PKA Literature Mimetic assay; assay type: biochemical; conditions: for Ki: Literature Mimetic (L) conditions
From the text: as §1

PKA [3] = target: T1, PKA; experiment: STAIRe method: form of the protein kinase the inhibitor binds best; assay type: biochemical
From the text: This was a somewhat surprising result since these inhibitors are analogs of the “end product inhibitors” 1 and 12 which must bind simultaneously with MgADP, following phosphate transfer in the generally accepted reaction mechanism for protein kinases.

[4] = test system: ovarian tumor cells from tumor N015; experiment: Patient tumor cell culture (ovarian tumors, abdominal carcinoma; tumor N015); assay type: cell-based, human
From the text: The initial non-peptide Src inhibitors have also shown very encouraging results in four different series of cell culture assays. 1) In the NIH 60-tumor cell panel assay, broad activity (as one would expect for a Src inhibitor) was seen against the tumor cell lines, including the prostate lines. […] […].

pp60^c-src = pp60^c-src (Homo sapiens, UniProt P12931); experiment: src Cellular Mimetic assay (RR-SRC phosphorylation); conditions: for % Inhibition of 2 mM RR-src at Inhibitor Concentration ( ): Table IV; for inhibition at 1000 µM: read-out: % Inhibition of 2 mM RR-src phosphorylation by src, Cellular Mimetic
Chain of pp60^c-src (P12931 whole entry): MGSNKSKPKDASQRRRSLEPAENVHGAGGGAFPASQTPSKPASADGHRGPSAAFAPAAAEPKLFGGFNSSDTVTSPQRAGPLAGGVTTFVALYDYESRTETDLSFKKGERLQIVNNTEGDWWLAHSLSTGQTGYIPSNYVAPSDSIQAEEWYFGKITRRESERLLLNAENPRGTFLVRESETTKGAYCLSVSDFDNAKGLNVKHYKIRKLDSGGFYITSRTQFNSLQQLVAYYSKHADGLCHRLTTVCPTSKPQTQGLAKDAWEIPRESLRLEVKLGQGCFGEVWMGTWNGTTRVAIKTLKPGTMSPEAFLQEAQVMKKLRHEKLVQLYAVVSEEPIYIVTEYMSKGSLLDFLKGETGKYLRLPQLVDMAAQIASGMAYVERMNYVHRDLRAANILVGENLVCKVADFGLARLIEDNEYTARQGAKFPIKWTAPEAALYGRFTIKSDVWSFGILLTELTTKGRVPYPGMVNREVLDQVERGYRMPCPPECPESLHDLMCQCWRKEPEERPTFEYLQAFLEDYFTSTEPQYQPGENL

src = target: T2, src (Homo sapiens, UniProt P12931); experiment: src Literature Mimetic assay (RR-src phosphorylation); assay type: biochemical; conditions: Inhibitor 1 mM; read-out: % Inhibition of 2 mM RR-src phosphorylation by src, Literature Mimetic
T2 construct: purchased
T2 sequence (P12931 whole entry): as above

[5] = test system: T3, boronic acid-containing PKA pentapeptide inhibitor 22, Ac-RRGXI-NH2
T3 sequence: RRGXI

[6] = test system: T4, boronic acid-containing PKA pentapeptide inhibitor 21, Ac-RRGXI-NH2
T4 sequence: RRGXI

p56^lck = p56^lck (Homo sapiens, UniProt P06239); conditions: analyzed with p56^lck; cited from earlier work
Chain of p56^lck (P06239 whole entry, species assumed): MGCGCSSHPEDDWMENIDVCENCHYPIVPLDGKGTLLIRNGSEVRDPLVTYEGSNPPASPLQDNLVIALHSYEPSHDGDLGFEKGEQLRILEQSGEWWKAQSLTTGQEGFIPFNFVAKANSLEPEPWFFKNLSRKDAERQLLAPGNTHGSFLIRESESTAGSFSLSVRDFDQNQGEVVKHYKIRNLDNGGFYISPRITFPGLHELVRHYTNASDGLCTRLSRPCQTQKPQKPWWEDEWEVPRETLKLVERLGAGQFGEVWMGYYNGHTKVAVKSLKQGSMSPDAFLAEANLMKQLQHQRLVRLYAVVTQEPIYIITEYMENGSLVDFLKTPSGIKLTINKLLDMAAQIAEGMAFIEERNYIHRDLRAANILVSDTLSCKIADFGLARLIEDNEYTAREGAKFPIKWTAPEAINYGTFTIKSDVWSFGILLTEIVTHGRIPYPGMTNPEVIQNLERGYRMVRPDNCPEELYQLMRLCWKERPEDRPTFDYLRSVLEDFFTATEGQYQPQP

[7] = target: cAMP-dependent protein kinase (PKA); experiment: PKA kinase inhibition assay (Ki, Table I); reference: the same inhibitor under Literature Mimetic conditions
[8] = target: cAMP-dependent protein kinase (PKA); experiment: PKA kinase inhibition assay, Literature Mimetic conditions
[9] = target: cAMP-dependent protein kinase (PKA); experiment: PKA kinase inhibition assay, Cellular Mimetic conditions; reference: phosphate inhibitor 1
[10] = target: cAMP-dependent protein kinase (PKA); experiment: PKA kinase inhibition assay, Literature Mimetic conditions; reference: phosphate inhibitor 1
[11] = target: cAMP-dependent protein kinase (PKA); experiment: PKA kinase inhibition assay, Literature Mimetic conditions; reference: sulfamic acid inhibitor 8
[12] = target: cAMP-dependent protein kinase (PKA); experiment: cell-based or functional assay
[13] = target: cAMP-dependent protein kinase (PKA); experiment: PKA kinase inhibition assay with Kemptamide substrate, Cellular Mimetic conditions, 0 h preincubation
[14] = target: cAMP-dependent protein kinase (PKA); experiment: PKA kinase inhibition assay with Kemptamide substrate, Literature Mimetic conditions, 0 h preincubation

binds more tightly than end product phosphate inhibitor 1 (PKA [1]): 108 times | binds more tightly than end product phosphate inhibitor 1 (PKA [2]; Literature Mimetic conditions): 31 times
Molecule: CC[C@H](C)[C@H](NC(=O)[C@H](CNS(=O)(=O)O)NC(=O)CNC(=O)[C@H](CCCNC(=N)N)NC(=O)[C@H](CCCNC(=N)N)NC(C)=O)C(N)=O [compound 8] (Ac-RRG[X1]I-NH2)
enzyme form bound best (STAIRe methodology) (PKA [3]): bind best when MgATP (not MgADP or no nucleotide) is also bound

Molecule: CC(=O)O[C@H]1C(=O)[C@@]2(C)[C@H]([C@H](OC(=O)c3ccccc3)[C@]3(O)C[C@H](OC(=O)[C@H](O)[C@@H](NC(=O)c4ccccc4)c4ccccc4)C(C)=C1C3(C)C)[C@]1(OC(C)=O)CO[C@@H]1C[C@@H]2O [taxol]
efficacy in tumor cell culture compared with other drugs [4]: more effective than etoposide & cisplatin

Molecule: CC[C@H](C)[C@H](NC(=O)[C@H](CC(O)P(=O)(O)O)NC(=O)CNC(=O)[C@H](CCCNC(=N)N)NC(=O)[C@H](CCCNC(=N)N)NC(C)=O)C(N)=O (single isomer, unassigned) [inhibitor 3A]
Ki (PKA [2]): 18 µM

% Inhibition of 2 mM RR-src at Inhibitor Concentration ( ) (pp60^c-src; 1 mM inhibitor): 0 (1 mM) %
Molecule: O=S(=O)(O)c1ccc2ccccc2c1

mode of inhibition relative to ATP (pp60^c-src; ATP increased up to 1 mM): not ATP-competitive
Molecule: OB(O)c1ccc2ccccc2c1 [compound 27]

% Inhibition of 2 mM RR-src at Inhibitor Concentration ( ) (pp60^c-src; 100 μM inhibitor): 0 (100 μM) %
Molecule: NS(=O)(=O)c1ccc2ccccc2c1

% Inhibition at 100 μM (std. dev.) (pp60^c-src; Table VI, hydroxynaphthalene series, 198 μM ATP): inactive
Molecule: COC(=O)c1cc2ccccc2cc1N [Compd 1d]

inhibition at 1000 µM (src): 64% | inhibition at 1000 µM (pp60^c-src): 5%
Molecule: NC(=O)C(O)C(=O)O (centres unmarked)

inhibition at 1000 µM (src): 24% | inhibition at 1000 µM (pp60^c-src): 0%
Molecule: NC(=O)C(N)C(=O)O (centres unmarked)

Molecule: CC[C@H](C)[C@H](NC(=O)[C@H](CC(O)P(=O)(O)O)NC(=O)CNC(=O)[C@H](CCCNC(=N)N)NC(=O)[C@H](CCCNC(=N)N)NC(C)=O)C(N)=O (single isomer, unassigned) [inhibitor 3B]
Ki (PKA [2]): 72 µM

inhibition at 1000 µM (src): 20% | inhibition at 1000 µM (pp60^c-src): 28%
Molecule: NC(=O)CC(=O)O

% Inhibition of 2 mM RR-src at Inhibitor Concentration ( ) (pp60^c-src; 100 μM inhibitor): 0 (100 μM) %
Molecule: NS(=O)(=O)c1cccc2ccccc12

% Inhibition of 2 mM RR-src at Inhibitor Concentration ( ) (pp60^c-src; 100 μM inhibitor): 10 (100 μM) %
Molecule: OB(O)c1cc2ccccc2o1 [compound 35]

Molecule: CC[C@H](C)[C@H](NC(=O)[C@H](CCP(=O)(O)O)NC(=O)CNC(=O)[C@H](CCCNC(=N)N)NC(=O)[C@H](CCCNC(=N)N)NC(C)=O)C(N)=O (Ac-RRG[Abu(4-PO3H2)]I-NH2)
Ki (PKA [2]): 76 µM

Ki (PKA [2]): 45 µM
Molecule: CC[C@H](C)[C@H](NC(=O)[C@H](CNC(CC(=O)O)CC(=O)O)NC(=O)CNC(=O)[C@H](CCCNC(=N)N)NC(=O)[C@H](CCCNC(=N)N)NC(C)=O)C(N)=O (Ac-RRG[X2]I-NH2)

Molecule: cAMP-dependent protein kinase (PKA)
phosphorylation by PKA on incubation for up to 4 hours without Kemptamide [5]: both 21 and 22 function as substrates with the D-diastereomer 22 being phosphorylated faster | phosphorylation by PKA on incubation for up to 4 hours without Kemptamide [6]: both 21 and 22 function as substrates with the D-diastereomer 22 being phosphorylated faster

Molecule: Cc1cc(O)c2c(c1)C(=O)c1cc(O)cc(O)c1C2=O [Emodin]
mode of inhibition with respect to ATP (p56^lck): ATP-competitive

Molecule: COc1cccc2c1C(=O)c1c(O)c3c(c(O)c1C2=O)C[C@@](O)(C(=O)CO)C[C@@H]3O[C@H]1C[C@H](N)[C@H](O)[C@H](C)O1 [doxorubicin]
efficacy in tumor cell culture compared with other drugs [4]: more effective than etoposide & cisplatin

% Inhibition of 2 mM RR-src at Inhibitor Concentration ( ) (pp60^c-src; 100 μM inhibitor): 0 (100 μM) %
Molecule: OB(O)c1cccc2ccccc12

Molecule: O=P(O)(O)CO
inhibition at 1000 µM (src): 51% | inhibition at 1000 µM (pp60^c-src): 0%

fold change in potency, Literature Mimetic to Cellular Mimetic conditions [7]: 3 fold
B1: PKA pentapeptide inhibitor 10, Ac-Arg-Arg-Gly-Ala(M1)-Ile-NH2 (peptide)
peptide: Ac-RRGA(M1)I-NH2
modifications: reading uncertain; also: M1 group structure shown only in a drawing, printed as Ac-Arg-Arg-Gly-Ala(M1)-Ile-NH2

Ki [8]: 72 µM
B2: PKA pentapeptide inhibitor 3B (hydroxyphosphonate, diastereomer B), Ac-Arg-Arg-Gly-Ala(M1)-Ile-NH2 (peptide)
peptide: Ac-RRGA(M1)I-NH2
modifications: reading uncertain; also: diastereomer B at M1, printed as Ac-Arg-Arg-Gly-Ala(M1)-Ile-NH2

Ki [8]: 0.16 µM | fold tighter binding than end product phosphate inhibitor 1 [9]: 108 times | fold tighter binding than end product phosphate inhibitor 1 [10]: 31 times
B3: PKA pentapeptide inhibitor 8 (sulfamic acid), Ac-Arg-Arg-Gly-Ala(M1)-Ile-NH2 (peptide)
peptide: Ac-RRGAI-NH2
modifications: not fully specified (residue 4); printed as Ac-Arg-Arg-Gly-Ala(M1)-Ile-NH2; also: M1 = sulfamic acid on side chain of residue 4

Ki [8]: 18 µM
B4: PKA pentapeptide inhibitor 3A (hydroxyphosphonate, diastereomer A), Ac-Arg-Arg-Gly-Ala(M1)-Ile-NH2 (peptide)
peptide: Ac-RRGA(M1)I-NH2
modifications: reading uncertain; also: diastereomer A at M1, printed as Ac-Arg-Arg-Gly-Ala(M1)-Ile-NH2

Ki [8]: 76 µM
B5: PKA pentapeptide inhibitor 2 (phosphonate), Ac-Arg-Arg-Gly-Ala(M1)-Ile-NH2 (peptide)
peptide: Ac-RRGAI-NH2
modifications: not fully specified (residue 4); printed as Ac-Arg-Arg-Gly-Ala(M1)-Ile-NH2; also: M1 = phosphonate on side chain of residue 4

fold change in potency, Literature Mimetic to Cellular Mimetic conditions [7]: 108 fold
B6: PKA pentapeptide inhibitor 1 (end product phosphate inhibitor), Ac-Arg-Arg-Gly-Ala(M1)-Ile-NH2 (peptide)
peptide: Ac-RRGAI-NH2
modifications: not fully specified (residue 4); printed as Ac-Arg-Arg-Gly-Ala(M1)-Ile-NH2; also: M1 = phosphate group on side chain of residue 4

Ki [8]: 45 µM
B7: PKA pentapeptide inhibitor 11, Ac-Arg-Arg-Gly-Ala(M1)-Ile-NH2 (peptide)
peptide: Ac-RRGA(M1)I-NH2
modifications: not fully specified; printed as Ac-Arg-Arg-Gly-Ala(M1)-Ile-NH2; reading uncertain

fold less potent than inhibitor 8 [11]: 1880 times | Ki [8]: 300 µM
B8: PKA pentapeptide inhibitor 7 (sulfonamide), Ac-Arg-Arg-Gly-Ala(M1)-Ile-NH2 (peptide)
peptide: Ac-RRGAI-NH2
modifications: not fully specified (residue 4); printed as Ac-Arg-Arg-Gly-Ala(M1)-Ile-NH2; also: M1 = sulfonamide on side chain of residue 4

IC50 µM (cond. C, 0 h preincubation), PKA inhibition [12]: 41 µM | IC50 µM (cond. C, 4 h preincubation), PKA inhibition [12]: 50 µM | IC50 µM (cond. L, 0 h preincubation), PKA inhibition [12]: 278 µM | IC50 µM (cond. L, 4 h preincubation), PKA inhibition [12]: 417 µM | Ki [13]: 25 µM | Ki [14]: 9 µM
B9: pentapeptide pseudosubstrate inhibitor 20, Ac-RRGAI-NH2 (peptide)
peptide: Ac-RRGAI-NH2
